Experimental data: patent publication US9409845B2, “Alpha-(3,5-dimethoxybenzylidene)-alpha′-hydrocarbyl methylene cyclic ketone and preparation method thereof” (PHARMAXYN LABORATORIES LTD., priority 2012, dated 2016)
pIC50: −log10 of the molar value. Read-outs that look alike come from different tables or passages of the source. Values belong to the compound of their own block, whether it stands above or below them.

Tests used:
EGFR = EGFR (Homo sapiens (Human), UniProt P00533); assay: EGFR kinase autophosphorylation, time-resolved fluorescence; assay type: biochemical; details: Table 1
Sequence of EGFR (P00533 25-1210, species assumed): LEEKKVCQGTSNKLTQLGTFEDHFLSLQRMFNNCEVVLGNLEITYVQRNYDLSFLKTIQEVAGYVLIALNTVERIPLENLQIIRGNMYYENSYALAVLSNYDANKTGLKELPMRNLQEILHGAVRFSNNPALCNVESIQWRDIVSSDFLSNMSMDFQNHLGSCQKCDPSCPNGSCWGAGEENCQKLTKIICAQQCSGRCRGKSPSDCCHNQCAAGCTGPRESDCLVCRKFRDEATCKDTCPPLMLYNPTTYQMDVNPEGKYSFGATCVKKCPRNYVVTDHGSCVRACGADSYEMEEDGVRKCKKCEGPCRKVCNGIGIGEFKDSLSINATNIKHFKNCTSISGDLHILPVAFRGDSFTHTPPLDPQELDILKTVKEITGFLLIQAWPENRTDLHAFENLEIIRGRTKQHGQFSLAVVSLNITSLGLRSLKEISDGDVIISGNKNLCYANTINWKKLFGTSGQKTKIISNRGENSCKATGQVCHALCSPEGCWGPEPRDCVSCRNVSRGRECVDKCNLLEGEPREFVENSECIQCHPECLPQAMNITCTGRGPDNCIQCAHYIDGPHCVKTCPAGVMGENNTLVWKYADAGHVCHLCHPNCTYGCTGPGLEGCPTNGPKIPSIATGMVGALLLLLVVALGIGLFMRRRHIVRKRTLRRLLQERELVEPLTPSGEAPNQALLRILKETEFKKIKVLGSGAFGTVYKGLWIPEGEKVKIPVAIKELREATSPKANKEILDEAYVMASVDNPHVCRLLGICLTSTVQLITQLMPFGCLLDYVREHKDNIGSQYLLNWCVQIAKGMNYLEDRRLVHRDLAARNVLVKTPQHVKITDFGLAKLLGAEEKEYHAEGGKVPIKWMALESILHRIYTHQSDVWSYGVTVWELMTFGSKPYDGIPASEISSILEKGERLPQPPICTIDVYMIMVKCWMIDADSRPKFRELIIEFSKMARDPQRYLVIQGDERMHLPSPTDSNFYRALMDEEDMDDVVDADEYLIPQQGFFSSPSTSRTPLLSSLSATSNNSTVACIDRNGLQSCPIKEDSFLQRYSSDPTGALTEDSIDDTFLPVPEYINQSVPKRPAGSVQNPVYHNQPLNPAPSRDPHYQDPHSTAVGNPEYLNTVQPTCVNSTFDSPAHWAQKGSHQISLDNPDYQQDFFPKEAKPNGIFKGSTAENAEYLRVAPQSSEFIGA
Description: Determination of the inhibitory effect of the compound on EGFR: the kinase activity of EGFR was detected according to time-resolved fluorescence detection technology to evaluate automatic phosphorylation levels. The test compound was dissolved in 100% DMSO, diluted with 25 mM HEPES (pH=7.4) to the desired concentration, added into each well with 10 μL of the test compounds and 10 μL solution containing 5 ng EGFR, then cultured for 10 min at room temperature using the recombinase diluted by 100 mM HEPES with a dilution ratio of 1:80, subsequently added with 10 μL solution containing 20 mM HEPES, 2 mM MnCl2, 100 μM Na3VO4, 1 mM DTT buffer, and 20 μL of 0.1 mM ATP and 50 mM MgCl2 and cultured for 1 h. The positive group in each plate was added with ATP-MgCl2 enzyme, the negative control group without adding with ATP-MgCl2 enzyme, the liquid was sucked out completely after cultured for 1 h, and each well was washed with buffer for three times. The wells were added with 75 μL anti-phosphorylated tyrosine antibody containing 400 ng europium labeling and cultured 1 h, washed, then added with enhancing solution.

[1] = tested on: human hepatoma HepG2 tumor cell lines; assay: MTT antiproliferation assay, HepG2; assay type: cell-based; details: for pIC50: MTT, 48 h
Description: (§1) The effects on tumor cell proliferation: the antiproliferative activities of α-(3,5-dimethoxy-benzylidene)-α′-hydrocarbonyl methylene cyclic ketone on human hepatoma HepG2 tumor cell lines and human cutaneous melanoma A16-F10 cell lines were evaluated using methyl thiazolyl tetrazolium (MTT) assay.
(§2) Experimental procedures are performed as follows: tumor cells in DMEM culture medium containing 10% fetal bovine serum, 100 U·mL^−1 penicillin and 100 U·mL^−1 streptomycin were cultured in an incubator under 5% CO2 and saturated humidity at 37. Test compounds were dissolved in dimethyl sulfoxide and then diluted with DMEM culture medium to the corresponding concentration, wherein the final concentration of dimethyl sulfoxide was less than 0.01%.
(§3) Negative control group, the blank control group and experimental groups were separately set up, each group with three double-wells. The negative control group was only added with cells but without the drug, the blank control group wad only added with dimethyl sulfoxide solution. The experimental group was added at each well with 11 μL solution containing different concentrations of the sample to be tested, such that the final concentration of the drug were […]. The cells were cultured for additional 48 h in a incubator with 5% CO2 at 37, subsequently the culture solution was gently sucked out and each well was added with 200 μL 0.5 mg/mL of MTT solution. The cells were cultured for another 6 h, then the MTT culture solution was sucked out and each well was added with 150 μL dimethyl sulfoxide, followed by oscillation dissolved for 10 min. The absorbance OD values in each well were measured at the measurement wavelength 570 nm and the reference wavelength 630 nm using a microplate reader.

[2] = tested on: human cutaneous melanoma A16-F10 cell lines; assay: MTT antiproliferation assay, A16-F10; assay type: cell-based
Description: as §1, §2, §3

[3] = Homo sapiens, HepG2, Table 2, read-out: Anti-proliferative effect on HepG2 tumor cells IC50
[4] = Table 1, read-out: anti-proliferation IC50 Hep G2
[5] = Table 1, MTT, 48 h, read-out: anti-proliferation IC50 A16-F10
[6] = Homo sapiens, HepG2, Table 1, read-out: anti-proliferation IC50 Hep G2
[7] = Homo sapiens, A16-F10, Table 1, MTT, 48 h, read-out: anti-proliferation IC50 A16-F10

Structure (SMILES): COc1cc(/C=C2\CCC/C(=C\c3ccccc3Br)C2=O)cc(OC)c1 [(2E,6E)-2-(3,5-dimethoxybenzyl-idene)-6-(2-bromobenzylidene)cyclohexanone]
- pIC50 [1, 4]: 4.49
- pIC50 (EGFR): 5.09
- pIC50 [2, 5]: 4.91

Structure (SMILES): COc1cc(/C=C2\CCC/C(=C\c3ccc(N(C)C)cc3)C2=O)cc(OC)c1 [(2E,6E)-2-(3,5-dimethoxybenzyl-idene)-6-(4-dimethylaminobenzylidene)cyclohexanone]
- pIC50 [1, 4]: 4.93
- pIC50 (EGFR): 5.40
- pIC50 [2, 5]: 5.23

Structure (SMILES): COc1cc(/C=C2\CCC/C(=C\C3CCCCC3)C2=O)cc(OC)c1 [(2E,6E)-2-(3,5-dimethoxybenzyl-idene)-6-(cyclohexylmethylene)cyclohexanone]
- pIC50 [1, 4]: 4.77
- pIC50 (EGFR): 5.12
- pIC50 [2, 5]: 4.91

Structure (SMILES): COc1cc(/C=C2\CCC/C(=C\c3ccccc3Cl)C2=O)cc(OC)c1 [(2E,6E)-2-(3,5-dimethoxybenzyl-idene)-6-(2-chlorobenzylidene)cyclohexanone]
- pIC50 (EGFR): 5.81

Structure (SMILES): COc1cc(/C=C2\CCC/C(=C\c3ccc(Cl)cc3)C2=O)cc(OC)c1 [(2E,6E)-2-(3,5-dimethoxybenzyl-idene)-6-(4-chlorobenzylidene)cyclohexanone]
- pIC50 [1, 4]: 4.59
- pIC50 (EGFR): 4.81
- pIC50 [2, 5]: 4.73

Structure (SMILES): COc1cc(/C=C2\CCC/C(=C\c3ccc(S(C)(=O)=O)cc3)C2=O)cc(OC)c1 [(2E,6E)-2-(3,5-dimethoxybenzyl-idene)-6-(4-methylsulphonylbenzylidene)cyclohexanone]
- pIC50 (EGFR): 5.71

Structure (SMILES): COc1cc(/C=C2\CCC/C(=C\c3cccc(Cl)c3)C2=O)cc(OC)c1 [(2E,6E)-2-(3,5-dimethoxybenzyl-idene)-6-(3-chlorobenzylidene)cyclohexanone]
- pIC50 (EGFR): 5.64

Structure (SMILES): COc1cc(/C=C2\CCC/C(=C\c3ccc(F)cc3)C2=O)cc(OC)c1 [(2E,6E)-2-(3,5-dimethoxybenzyl-idene)-6-(4-fluorobenzylidene)cyclohexanone]
- pIC50 [1, 4]: 4.92
- pIC50 (EGFR): 5.24
- pIC50 [2, 5]: 5.12

Structure (SMILES): COc1cc(/C=C2\CCC/C(=C\c3ccc(Br)cc3)C2=O)cc(OC)c1 [(2E,6E)-2-(3,5-dimethoxybenzyl-idene)-6-(4-bromophenyl-methylene)cyclohexanone]
- pIC50 (EGFR): 5.15

Structure (SMILES): COc1cc(/C=C2\CCC/C(=C\c3ccccc3OC)C2=O)cc(OC)c1 [(2E,6E)-2-(3,5-dimethoxybenzyl-idene)-6-(2-methoxybenzylidene)cyclohexanone]
- pIC50 [1, 4]: < 3.70
- pIC50 [2, 5]: < 3.70

Structure (SMILES): COc1cccc(/C=C2\CCC/C(=C\c3cc(OC)cc(OC)c3)C2=O)c1 [(2E,6E)-2-(3,5-dimethoxybenzyl-idene)-6-(3-methoxybenzylidene)cyclohexanone]
- pIC50 (EGFR): 5.21

Second part, led by results:

- pIC50 (EGFR): 5.33
Structure (SMILES): COc1cc(/C=C2\CCC/C(=C\c3ccc(O)cc3)C2=O)cc(OC)c1 [(2E,6E)-2-(3,5-dimethoxybenzylidene)-6-(4-hydroxybenzylidene)cyclohexanone]

- pIC50 (EGFR): 5.27
- melting point: 131.2 to 131.6 °C
Structure (SMILES): COc1cc(/C=C2\CCC/C(=C\c3ccc(OC)c(O)c3)C2=O)cc(OC)c1 [(2E,6E)-2-(3,5-dimethoxy-benzylidene)-6-(3-hydroxy-4-methoxybenzylidene)cyclohexanone]

- pIC50 (EGFR): 5.77
Structure (SMILES): COc1cc(/C=C2\CCC/C(=C\c3ccccc3)C2=O)cc(OC)c1 [(2E,6E)-2-(3,5-dimethoxy-benzylidene)-6-benzylidene cyclohexanone]

- pIC50 [1, 3]: 4.95
Structure (SMILES): COc1cc(/C=C2\CC/C(=C\c3ccccc3)C2=O)cc(OC)c1 [(2E,5E)-2-(3,5-dimethoxybenzylidene)-5-benzylidenecyclopentanone]
- anti-proliferative effect on HepG2 tumor cell lines (in words) ([1]; comparison): significantly stronger than curcumin

- pIC50 (EGFR): 4.73
Structure (SMILES): COc1ccc(/C=C2\CCC/C(=C\c3cc(OC)cc(OC)c3)C2=O)cc1 [(2E,6E)-2-(3,5-dimeth-oxybenzylidene)-6-(4-methoxybenzylidene)cyclohexanone]

- pIC50 [1, 6]: 5.12
- pIC50 (EGFR): 5.66
- pIC50 [2, 7]: 5.25
Structure (SMILES): COc1cc(/C=C2\CCC/C(=C\c3ccccc3F)C2=O)cc(OC)c1 [(2E,6E)-2-(3,5-dimethoxybenzylidene)-6-(2-fluorobenzylidene)cyclohexanone]

- pIC50 (EGFR): 5.16
Structure (SMILES): COc1cc(/C=C2\CCC/C(=C\c3cccc(Br)c3)C2=O)cc(OC)c1 [(2E,6E)-2-(3,5-dimethoxybenzylidene)-6-(3-bromobenzylidene)cyclohexanone]

- pIC50 [1, 6]: 5.07
- pIC50 (EGFR): 5.68
- pIC50 [2, 7]: 5.33
Structure (SMILES): COc1cc(/C=C2\CCC/C(=C\c3cc(OC)cc(OC)c3)C2=O)cc(OC)c1 [(2E,6E)-2,6-bis (3,5-dimethoxybenzylidene)cyclohexanone]

- pIC50 (EGFR): 5.32
Structure (SMILES): COc1cc(/C=C2\CCC/C(=C\c3cc(C(C)(C)C)c(O)c(C(C)(C)C)c3)C2=O)cc(OC)c1 [(2E,6E)-2-(3,5-dimethoxybenzylidene)-6-(3,5-di-t-butyl-4-hydroxybenzylidene)cyclohexanone]

- pIC50 [1, 3]: 4.10
Structure (SMILES): COc1cc(/C=C2\CC/C(=C\c3ccc(F)cc3)C2=O)cc(OC)c1 [(2E,5E)-2-(3,5-dimethoxybenzylidene)-5-(4-fluorobenzylidene)cyclopentanone]

- pIC50 [2, 7]: 4.73
Structure (SMILES): COc1cc(/C=C/C(=O)CC(=O)/C=C/c2ccc(O)c(OC)c2)ccc1O [curcumin, reference compound]

- pIC50 [1, 6]: 6.00
- pIC50 (EGFR): 6.37
- pIC50 [2, 7]: 6.15
- pIC50 ([2]; Homo sapiens, A16-F10, cell line not given, read-out: anti-tumor activity IC50): > 6.00
Structure (SMILES): COc1cc(/C=C2\CCC/C(=C\c3ccc(O)c(O)c3)C2=O)cc(OC)c1 [(2E,6E)-2-(3,5-dimethoxybenzylidene)-6-(3,4-dihydroxybenzylidene)cyclohexanone]

- pIC50 [2, 7]: 6.70
Structure (SMILES): C#Cc1cccc(Nc2ncnc3cc(OCCOC)c(OCCOC)cc23)c1 [erlotinib, reference compound]
